Read-outs that look alike come from different tables or passages of the source.
Assay: Stability studies, storage at 40° C.
Format: physicochemical

For `C=C1/C(=C\C=C2/CCC[C@]3(C)[C@@H]([C@H](C)/C=C/[C@@H](O)C4CC4)CC[C@@H]23)C[C@@H](O)C[C@@H]1O` [anhydrous form of calcipotriol, (1α,3β,5Z,7E,22E,24S)-24-Cyclopropyl-9,10-secochola-5,7,10(19), 22-tetraene-1,3,24-triol], the “degradation after 12 months storage” value was “more than 30%”.

With `C=C1/C(=C\C=C2/CCC[C@]3(C)[C@@H]([C@H](C)/C=C/[C@@H](O)C4CC4)CC[C@@H]23)C[C@@H](O)C[C@@H]1O` [calcipotriol hydrate, calcipotriol, hydrate] the “degradation after 12 months storage” value (hydrate) was “no degradation”.
